Read-outs that look alike come from different tables or passages of the source.
What was measured:
E. coli GC 4559 = assay: MIC, broth microdilution; conditions: Escherichia coli, GC4559, E. coli GC 4559
S. epidermidis GC 4935 = assay: MIC, broth microdilution; conditions: Staphylococcus epidermidis, GC4935, S. epidermidis GC 4935
S. pneumoniae* GC 4465 = assay: MIC, broth microdilution; conditions: Streptococcus pneumoniae, S. pneumoniae* GC 4465
S. aureus GC 6466 = assay: MIC, broth microdilution; conditions: Staphylococcus aureus, GC6466, S. aureus GC 6466
S. pneumoniae+ GC 4465 = assay: MIC, broth microdilution; conditions: Streptococcus pneumoniae, S. pneumoniae+ GC 4465
Staph. aureus Smith = assay: In vivo activity (oral, iv; ED50) against Staph. aureus Smith in mice
Method: Representative examples of compounds of Formula I were tested for the oral efficacy using S. aureus Smith in mice.

E. coli GC 2231 = assay: MIC, broth microdilution; conditions: Escherichia coli, GC2231, E. coli GC 2231
E. faecalis GC 2242 = assay: MIC, broth microdilution; conditions: Enterococcus faecalis, GC2242, E. faecalis GC 2242
E. coli GC 2234 = assay: MIC, broth microdilution; conditions: Escherichia coli, GC2234, E. coli GC 2234
S. aureus GC 1131 = assay: MIC, broth microdilution; conditions: Staphylococcus aureus, GC1131, S. aureus GC 1131
E. coli GC 4560 = assay: MIC, broth microdilution; conditions: Escherichia coli, GC4560, E. coli GC 4560
E. coli GC 2232 = assay: MIC, broth microdilution; conditions: Escherichia coli, GC2232, E. coli GC 2232
E. coli GC 2272 = assay: MIC, broth microdilution; conditions: Escherichia coli, GC2272, E. coli GC 2272
S. aureus GC 4536 = assay: MIC, broth microdilution; conditions: Staphylococcus aureus, GC4536, S. aureus GC 4536
P. aeruginosa GC 2214 = assay: MIC, broth microdilution; conditions: Pseudomonas aeruginosa, GC2214, P. aeruginosa GC 2214
E. coli GC 2203 = assay: MIC, broth microdilution; conditions: Escherichia coli, GC2203, E. coli GC 2203
E. coli GC 6465 = assay: MIC, broth microdilution; conditions: Escherichia coli, GC6465, E. coli GC 6465
E. faecalis GC 2267 = assay: MIC, broth microdilution; conditions: Enterococcus faecalis, GC2267, E. faecalis GC 2267
S. aureus GC 6467 = assay: MIC, broth microdilution; conditions: Staphylococcus aureus, GC6467, S. aureus GC 6467
S. aureus GC 2216 = assay: MIC, broth microdilution; conditions: Staphylococcus aureus, GC2216, S. aureus GC 2216

CCCN(CC(=O)Nc1cc(N(C)C)c2c(c1O)C(=O)C1=C(O)[C@]3(O)C(=O)C(C(N)=O)=C(O)[C@@H](N(C)C)[C@@H]3C[C@@H]1C2)C(=O)OCOC(=O)c1ccc(C)cc1 [Example 5, ({[(2-{[(5aR,6aS,7S,10aS)-9-(aminocarbonyl)-4,7-bis(dimethylamino)-1,8,10a,11-tetrahydroxy-10,12-dioxo-5,5a,6,6a,7,10,10a,12-octahydrotetracen-2-yl]amino}-2-oxoethyl)(propyl)amino]carbonyl}oxy)methyl 4-methylbenzoate]
0.25 µg/mL: MIC (S. aureus GC 6466; Mouse Serum pre-incubation)
64 µg/mL: MIC (E. coli GC 2231; Water pre-incubation)
8 µg/mL: MIC (E. coli GC 6465; Mouse Serum pre-incubation)
0.5 mg/kg: ED50 (Staph. aureus Smith; Staphylococcus aureus, in Mus musculus, iv, read-out: ED50 SIV (Staph aureus Smith)) | ED50 (Staph. aureus Smith; iv, read-out: ED50 Staph Smith SIV)
2 µg/mL: MIC (E. coli GC 4559; Mouse Serum pre-incubation) | MIC (S. epidermidis GC 4935; Water pre-incubation) | MIC (S. pneumoniae+ GC 4465; Mouse Serum pre-incubation) | MIC (E. coli GC 2231; Mouse Serum pre-incubation) | MIC (E. faecalis GC 2242; Water pre-incubation) | MIC (E. coli GC 2232; Mouse Serum pre-incubation) | MIC (E. faecalis GC 2267; Mouse Serum pre-incubation) | MIC (S. aureus GC 6467; Mouse Serum pre-incubation) | MIC (S. aureus GC 2216; Water pre-incubation)
0.5 µg/mL: MIC (S. aureus GC 6466; Water pre-incubation) | MIC (S. aureus GC 1131; Mouse Serum pre-incubation) | MIC (E. coli GC 4560; Mouse Serum pre-incubation) | MIC (S. aureus GC 2216; Mouse Serum pre-incubation)
8.51 mg/kg: ED50 (Staph. aureus Smith; Staphylococcus aureus, in Mus musculus, po, read-out: ED50 SOD (Staph aureus Smith)) | ED50 (Staph. aureus Smith; Staphylococcus aureus, in Mus musculus, po, read-out: ED50 Staph Smith SOD)
32 µg/mL: MIC (E. coli GC 4559; Water pre-incubation) | MIC (E. coli GC 2234; Water pre-incubation) | MIC (E. coli GC 2232; Water pre-incubation) | MIC (E. coli GC 2272; Water pre-incubation) | MIC (P. aeruginosa GC 2214; Mouse Serum pre-incubation) | MIC (E. coli GC 2203; Water pre-incubation)
< 0.06 µg/mL: MIC (S. pneumoniae* GC 4465; Mouse Serum pre-incubation)
1 µg/mL: MIC (S. epidermidis GC 4935; Mouse Serum pre-incubation) | MIC (E. faecalis GC 2242; Mouse Serum pre-incubation) | MIC (E. coli GC 2234; Mouse Serum pre-incubation) | MIC (S. aureus GC 1131; Water pre-incubation) | MIC (E. coli GC 2272; Mouse Serum pre-incubation) | MIC (S. aureus GC 4536; Mouse Serum pre-incubation) | MIC (S. aureus GC 4536; Water pre-incubation) | MIC (E. coli GC 2203; Mouse Serum pre-incubation)
0.12 µg/mL: MIC (S. pneumoniae* GC 4465; Water pre-incubation)
4 µg/mL: MIC (S. pneumoniae+ GC 4465; Water pre-incubation) | MIC (E. coli GC 4560; Water pre-incubation) | MIC (E. faecalis GC 2267; Water pre-incubation) | MIC (S. aureus GC 6467; Water pre-incubation)
> 64 µg/mL: MIC (P. aeruginosa GC 2214; Water pre-incubation) | MIC (E. coli GC 6465; Water pre-incubation)

From patent publication US20070049564A1 (Wyeth, priority 2005, published 2007)
